{"source": "patent US10640495B2", "about": "“Heterocycle derivatives having TrkA inhibitory activity” (Shionogi & Co., Ltd., priority 2015, dated 2020)"}
{"target": "human TrkA (Homo sapiens (Human), UniProt P04629)", "sequence (P04629 440-796)": "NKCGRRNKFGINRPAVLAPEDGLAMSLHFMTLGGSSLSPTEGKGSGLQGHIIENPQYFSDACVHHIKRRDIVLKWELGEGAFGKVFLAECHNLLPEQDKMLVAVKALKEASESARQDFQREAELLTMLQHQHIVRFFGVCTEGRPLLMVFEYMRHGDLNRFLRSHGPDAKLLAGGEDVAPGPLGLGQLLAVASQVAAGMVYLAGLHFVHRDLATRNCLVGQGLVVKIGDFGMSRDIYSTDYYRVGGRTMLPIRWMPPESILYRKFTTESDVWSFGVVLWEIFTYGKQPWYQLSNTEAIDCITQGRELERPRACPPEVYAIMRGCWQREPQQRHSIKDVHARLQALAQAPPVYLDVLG", "experiment": "Human TrkA inhibition assay (Test Example 2)", "type": "biochemical", "details": "Table 152, human TrkA inhibition; read-out: IC50_nM", "summary_of_the_method": "(§1)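 Recombinant TrkA (1 nmol/L) was preincubated 15 min at room temperature with compound in HEPES/MgCl2/DTT buffer, then reacted with FL-peptide 27 (1.5 μmol/L) and ATP (500 μmol/L) for 120 min at 37 °C. After EDTA stop, substrate phosphorylation was read by microfluidic mobility shift. IC50 came from logistic regression over 3-fold dilution series.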", "units": {"IC50": "nM"}}
{"compound": "COCCN1C[C@H](NC(=O)Nc2c(C)c(C3=CCN(C(C)=O)CC3)nn2-c2ccccc2)[C@@H](c2ccc(F)c(F)c2)O1", "note": "[Compound I-38]", "IC50": "> 1000"}
{"target": "human TrkA (Homo sapiens (Human), UniProt P04629)", "experiment": "Human TrkA inhibition assay (Test Example 2)", "type": "biochemical", "details": "Table 153, human TrkA inhibition; read-out: IC50", "summary_of_the_method": "as §1", "units": {"IC50": "nM"}}
{"compound": "COCCN1C[C@@H](NC(=O)Nc2c(C)c(-c3cnc(OC)c(C(N)=O)c3)nn2-c2ccccc2)[C@H](c2ccnc(F)c2)O1", "note": "(racemic) [Compound I-109]", "IC50": "< 100"}
{"compound": "COCCN1C[C@@H](NC(=O)Nc2c(C)c(-c3cccc(C(=O)O)c3)nn2-c2ccccc2)[C@H](c2ccc(F)c(F)c2)O1", "note": "(racemic) [Compound I-51]", "IC50": "< 100"}
{"compound": "CCOc1ncc(-c2nn(-c3ccccc3)c(NC(=O)N[C@@H]3CN(CCOC)O[C@H]3c3cnc(F)c(F)c3)c2C)cn1", "note": "(racemic) [Compound I-68]", "IC50": "< 100"}
{"target": "human TrkA (Homo sapiens (Human), UniProt P04629)", "experiment": "Human TrkA inhibition assay (Test Example 2)", "type": "biochemical", "details": "Table 154, human TrkA inhibition; read-out: IC50", "summary_of_the_method": "as §1", "units": {"IC50": "nM"}}
{"compound": "COCC[C@@H]1C[C@@H](NC(=O)Nc2c(C)c(-c3cnn(C)c3)nn2-c2ccccc2)[C@H](c2ccnc(F)c2)O1", "note": "[Compound I-235]", "IC50": "< 100"}
{"compound": "COCCN1C[C@@H](NC(=O)Nc2c(C)c(-c3cnc4c(c3)[nH]c(=O)n4C)nn2-c2ccccc2)[C@H](c2ccnc(F)c2)O1", "note": "(racemic) [Compound I-208]", "IC50": "< 100"}
{"compound": "COCCN1C[C@@H](NC(=O)Nc2c(C)c(-c3ccnc(C(=O)OC)c3)nn2-c2ccccc2)[C@H](c2ccnc(F)c2)O1", "note": "(racemic) [Compound I-194]", "IC50": "< 100"}
{"compound": "COCCN1C[C@@H](NC(=O)Nc2c(C)c(-c3cnc(OC)c(C(=O)NOCC(C)(C)O)c3)nn2-c2ccccc2)[C@H](c2cnc(F)c(F)c2)O1", "note": "(racemic) [Compound I-318]", "IC50": "< 100"}
{"target": "human TrkA (Homo sapiens (Human), UniProt P04629)", "experiment": "Human TrkA inhibition assay (Test Example 2)", "type": "biochemical", "details": "Table 155, human TrkA inhibition; read-out: IC50", "summary_of_the_method": "as §1", "units": {"IC50": "nM"}}
{"compound": "COCCN1C[C@@H](NC(=O)Nc2c(C)c(-c3cnc(C(=O)NC4CC4)c(OC)c3)nn2-c2ccccc2)[C@H](c2ccnc(F)c2)O1", "note": "(racemic) [Compound I-339]", "IC50": "< 100"}
{"compound": "COCCN1C[C@@H](NC(=O)Nc2c(C)c(-c3cnc(N4CC(OC)C4)nc3)nn2-c2ccccc2)[C@H](c2ccnc(F)c2)O1", "note": "(racemic) [Compound I-489]", "IC50": "< 100"}
{"compound": "COCCN1C[C@@H](NC(=O)Nc2c(C)c(-c3cnc4c(c3)CN(C)C4=O)nn2-c2ccccc2)[C@H](c2ccc(F)cc2)O1", "note": "[Compound I-411]", "IC50": "< 100"}
{"compound": "COCCN1C[C@@H](NC(=O)Nc2c(C)c(-c3ccc(N4CCC(NC(C)=O)C4)nc3)nn2-c2ccccc2)[C@H](c2ccnc(F)c2)O1", "note": "(stereo partly shown) [Compound I-349]", "IC50": "< 100"}
{"compound": "COCCN1C[C@@H](NC(=O)Nc2c(C)c(-c3ccc(=O)n(C)c3)nn2-c2ccccc2)[C@H](c2ccc(F)c(F)c2)O1", "note": "[Compound I-498]", "IC50": "< 100"}
{"target": "human TrkA (Homo sapiens (Human), UniProt P04629)", "experiment": "Human TrkA inhibition assay (Test Example 2)", "type": "biochemical", "details": "Table 156, human TrkA inhibition; read-out: IC50", "summary_of_the_method": "as §1", "units": {"IC50": "nM"}}
{"compound": "COCCN1C[C@@H](NC(=O)Nc2c(C)c(-c3cnc(CN(C)C)nc3)nn2-c2ccccc2)[C@H](c2ccc(F)c(F)c2)O1", "note": "(racemic) [Compound I-528]", "IC50": "< 100"}
{"compound": "COCCN1C[C@@H](NC(=O)Nc2c(C)c(-c3ccnc(C(=O)OC)c3)nn2-c2ccccc2)[C@H](c2ccc(F)c(F)c2)O1", "note": "[Compound I-557]", "IC50": "< 100"}
{"target": "human TrkA (Homo sapiens (Human), UniProt P04629)", "experiment": "Human TrkA inhibition assay (Test Example 2)", "type": "biochemical", "details": "Table 157, human TrkA inhibition; read-out: IC50", "summary_of_the_method": "as §1", "units": {"IC50": "nM"}}
{"compound": "COCCN1C[C@@H](NC(=O)Nc2c(C)c(-c3cnc4oc(C)nc4c3)nn2-c2ccccc2)[C@H](c2ccnc(F)c2)O1", "note": "(racemic) [Compound I-596]", "IC50": "< 100"}
{"compound": "COCCN1C[C@@H](NC(=O)Nc2c(C)c(-c3cnc(N4CCN(C)[C@@H](C)C4)nc3)nn2-c2ccccc2)[C@H](c2ccnc(F)c2)O1", "note": "[Compound I-593]", "IC50": "< 100"}
{"target": "human TrkA (Homo sapiens (Human), UniProt P04629)", "experiment": "Human TrkA inhibition assay (Test Example 2)", "type": "biochemical", "details": "human TrkA 1 nmol/L, ATP 500 μmol/L, 120 min at 37° C.; read-out: IC50 values (TrkA phosphorylation inhibition)", "summary_of_the_method": "as §1", "units": {"IC50": "nM"}}
{"compound": "COCCN1C[C@@H](NC(=O)Nc2c(C)c(-c3cnc4c(c3)c(=O)n(C)n4C)nn2-c2ccccc2)[C@H](c2cnc(F)c(F)c2)O1", "note": "(racemic) [Compound I-79]", "IC50": 1.5}
{"compound": "CCN1C[C@@H](NC(=O)Nc2c(C)c(OCC3CCN(C)CC3)nn2-c2ccccc2)[C@H](c2ccc(F)c(F)c2)O1", "note": "[Compound I-536]", "IC50": 4}
{"compound": "CNC(=O)c1ncc(-c2nn(-c3ccccc3)c(NC(=O)N[C@@H]3CN(CCOC)O[C@H]3c3ccnc(F)c3)c2C)cc1C", "note": "(racemic) [Compound I-166]", "IC50": 4.8}
{"compound": "COCC[C@@H]1C[C@@H](NC(=O)Nc2c(C)c(-c3cnc(C)nc3)nn2-c2ccccc2)[C@H](c2ccnc(F)c2)O1", "note": "(racemic) [Compound I-96]", "IC50": 15}
{"compound": "COCCN1C[C@@H](NC(=O)Nc2c(C)c(-c3cnc4c(c3)CC(=O)N4C)nn2-c2ccccc2)[C@H](c2ccnc(F)c2)O1", "note": "(racemic) [Compound I-291]", "IC50": 2}
